Our source for the TGI and GI50 values is PubChem BioAssay (NCI).

Test systems include CCRF-CEM leukemia; SF-295 CNS; A549 NSCLC; U251 CNS; MALME-3M melanoma; SR leukemia; NCI-H23 lung; HCT-116 colon; LOX IMVI melanoma; RXF 393 renal.
Experiment in all cases: NCI tumour cell line growth inhibition, 48 h

Values joined by “and” are separate entries in the source; they are usually repeats but may differ in a detail not shown here. Identical values can stand only once.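 Exposure lasted 48 hours, with cells grown in 96-well plates and compounds tested at five concentrations. Here, GI50 denotes the concentration required for 50% inhibition of growth. TGI marks complete inhibition of growth.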

Turning to `N#CC(c1ccc(Cl)cc1)c1cccc(Cl)n1` (centres undefined), the TGI in the test with CCRF-CEM leukemia, in the test on SF-295 CNS, in the test with A549 NSCLC, with U251 CNS, with MALME-3M melanoma and in the test with SR leukemia was above 100 µM throughout. In the test on NCI-H23 lung, this molecule gave a TGI above 100 µM.

In the case of `CC1=C([Se]CC(OC(=O)[C@@H](CSSC(C)(C)C)NC(=O)C(C)(C)C)C(=O)NCCCCCC(=O)OCc2ccccc2)C(=O)c2ccccc2C1=O` (some centres undefined), the GI50 in the test with SF-295 CNS was 0.317 µM; with A549 NSCLC, 2.11 µM; in the test with U251 CNS it was 1.25 µM; in the test on HCT-116 colon, 1.53 µM; with MALME-3M melanoma it was 2.49 µM; with SR leukemia, 3.84 µM. Moreover, the GI50 in the test on NCI-H23 lung was 2.4 µM; with LOX IMVI melanoma it was 2.59 µM. The TGI with SF-295 CNS is 1.95 µM; in the test on A549 NSCLC, 5.42 µM; in the test on U251 CNS it was 2.81 µM; in the test with HCT-116 colon, 3.68 µM; in the test on MALME-3M melanoma it was 5.15 µM; with SR leukemia, 18.5 µM. In addition, the figures for the TGI in the test on NCI-H23 lung and with LOX IMVI melanoma were 7.1 µM and 7.62 µM, respectively.

`CC1(C)CC2=NOS3=C2C(=NO3)C1c1ccccn1` (centres undefined): the TGI in the test on CCRF-CEM leukemia was 78.4 µM; with SF-295 CNS it was above 100 µM; in the test on A549 NSCLC, above 100 µM; with U251 CNS it was above 100 µM; in the test with HCT-116 colon it was above 100 µM; in the test on MALME-3M melanoma, above 100 µM. In addition, the TGI in the test with SR leukemia is 81 µM; in the test on NCI-H23 lung, above 100 µM; in the test with LOX IMVI melanoma, above 100 µM.

Take `CO/C=C/c1cc2c(cc1C(OC)OC)OCO2`: the TGI in the test with CCRF-CEM leukemia, in the test on A549 NSCLC, in the test on U251 CNS, in the test on RXF 393 renal, in the test on HCT-116 colon and with MALME-3M melanoma was above 100 µM in each case. Moreover, the TGI in the test with SR leukemia and with NCI-H23 lung was above 100 µM in each case.

Turning to `Cc1ccc(C2=NN(C)COC2C(F)(F)F)cc1` (centres undefined), the TGI in the test on CCRF-CEM leukemia, in the test on SF-295 CNS, with A549 NSCLC, in the test on U251 CNS, in the test on RXF 393 renal and in the test on HCT-116 colon was above 100 µM each time. In addition, the TGI in the test on MALME-3M melanoma, with SR leukemia and with NCI-H23 lung was above 100 µM each time.

As for `CCC(=O)Nc1ccc2c(c1)CN1C(=O)c3ccccc3C1=N2`, the GI50 in the test with SF-295 CNS, in the test with A549 NSCLC, with U251 CNS, in the test on HCT-116 colon, in the test on MALME-3M melanoma and in the test with SR leukemia was above 100 µM in each case. Further, the GI50 in the test with NCI-H23 lung and with LOX IMVI melanoma was above 100 µM in each case. Further, the TGI in the test on SF-295 CNS, with A549 NSCLC, with U251 CNS, in the test with HCT-116 colon, in the test on MALME-3M melanoma and in the test with SR leukemia was above 100 µM in each case. For the same molecule, the TGI in the test on NCI-H23 lung and in the test on LOX IMVI melanoma was above 100 µM each time.

As for `COc1ccc2c(c1)/C(=C/c1c(-c3ccc(C)cc3)nc3sc(C)cn13)C(=O)N2`, the GI50 is 6.84 µM in the test with CCRF-CEM leukemia; 11 µM with SF-295 CNS; 12.5 µM with A549 NSCLC; 4.71 µM in the test on HCT-116 colon; 25.2 µM in the test with MALME-3M melanoma; 1.59 µM with SR leukemia. In the test with NCI-H23 lung, the GI50 was 6.86 µM. Further, the TGI was 80.3 µM with CCRF-CEM leukemia; above 100 µM in the test on SF-295 CNS; above 100 µM in the test with A549 NSCLC; 18.7 µM in the test with HCT-116 colon; above 100 µM in the test with MALME-3M melanoma; 28.7 µM with SR leukemia. Also, the TGI with NCI-H23 lung worked out at 32.5 µM.

For the molecule `O=C(Nc1ccc(N=Nc2ccccc2)cc1)Sc1ccccc1C(=O)O`, the TGI in the test with SF-295 CNS, in the test with A549 NSCLC, in the test on U251 CNS, in the test with RXF 393 renal, in the test on HCT-116 colon and with SR leukemia was above 100 µM in each case. Besides, the TGI with NCI-H23 lung and in the test on LOX IMVI melanoma was above 100 µM throughout.

Consider `Cc1cc2c(cc1C)[n+](=O)c(C(=O)c1cccs1)c(C(F)(F)F)n2[O-]`, for which the GI50 is 0.603 µM and 2.89 µM in the test on SF-295 CNS; 3.27 µM and 5.68 µM with A549 NSCLC; 6.83 µM and 3.96 µM in the test on U251 CNS; 19.7 µM and 9.21 µM in the test with RXF 393 renal; 5.2 µM in the test on HCT-116 colon; 0.924 µM with SR leukemia. In addition, in the test on NCI-H23 lung, the GI50 was 6.25 µM. For the same molecule, the TGI is 3.34 µM and 12.9 µM in the test on SF-295 CNS; 50 µM and 21.5 µM in the test with A549 NSCLC; 25.5 µM and 75.8 µM with U251 CNS; 50 µM and 29.3 µM with RXF 393 renal; 26.7 µM with HCT-116 colon; 8.11 µM in the test with SR leukemia. Also, the TGI is 19.7 µM with NCI-H23 lung; 12.3 µM and 13.2 µM with LOX IMVI melanoma.

`CCOC(=O)c1ccc(C(O)CC(=O)OC(C)(C)C)[nH]1` (centres undefined): the GI50 with CCRF-CEM leukemia is 29.6 µM; in the test on SF-295 CNS, 29.7 µM; in the test on A549 NSCLC, 32.1 µM; in the test on U251 CNS, 39.5 µM; in the test on HCT-116 colon it was 23.2 µM; in the test with MALME-3M melanoma, 0.692 µM. The GI50 with SR leukemia is 22.4 µM; with NCI-H23 lung, 44.4 µM; in the test with LOX IMVI melanoma it was 25.1 µM. Further, the TGI in the test on CCRF-CEM leukemia was 88 µM; in the test on SF-295 CNS, 63.5 µM; in the test on A549 NSCLC it was above 100 µM; in the test on U251 CNS it was above 100 µM; with HCT-116 colon it was 68.4 µM; in the test on MALME-3M melanoma, 24.8 µM. Further, the TGI with SR leukemia is above 100 µM; in the test with NCI-H23 lung, above 100 µM; with LOX IMVI melanoma, 86.8 µM.

For `O=C(CCc1ccc(O)c(O)c1)c1ccc(O)c(O)c1O`, the TGI in the test on CCRF-CEM leukemia was 47.3 µM; in the test with SF-295 CNS, 36.7 µM; with A549 NSCLC, above 100 µM; in the test with U251 CNS, 62.4 µM; in the test with HCT-116 colon, above 100 µM; in the test with MALME-3M melanoma, above 100 µM. The TGI in the test on SR leukemia is above 100 µM; in the test with NCI-H23 lung, 61.3 µM; in the test with LOX IMVI melanoma, above 100 µM.

For `N#C/C(=C\c1ccc(Br)cc1)n1nnc2cc(F)c(F)cc21`, the GI50 in the test with CCRF-CEM leukemia was 1.48 µM; in the test with SF-295 CNS, 1.58 µM; in the test with A549 NSCLC it was 2.14 µM; in the test on U251 CNS, 1.6 µM; with RXF 393 renal, 1.37 µM; with HCT-116 colon, 1.56 µM. The GI50 in the test on MALME-3M melanoma was 1.59 µM; with NCI-H23 lung, 1.76 µM; in the test on LOX IMVI melanoma, 1.55 µM. In addition, the TGI in the test with CCRF-CEM leukemia amounted to 8.81 µM; in the test on SF-295 CNS it was 3.27 µM; in the test on A549 NSCLC it was 5.62 µM; with U251 CNS, 3.06 µM; with RXF 393 renal, 2.77 µM; with HCT-116 colon, 3.44 µM. The TGI in the test on MALME-3M melanoma came out at 3.12 µM; with NCI-H23 lung, 3.44 µM; in the test on LOX IMVI melanoma it was 2.98 µM.

As for `O[C@H]1[C@H]2[C@H](O)CCCN2C[C@H]1O`, the TGI with CCRF-CEM leukemia, in the test on SF-295 CNS, in the test on A549 NSCLC, in the test on U251 CNS, with RXF 393 renal and in the test on HCT-116 colon was above 100 µM in each case. Also, the TGI in the test with MALME-3M melanoma, with NCI-H23 lung and in the test on LOX IMVI melanoma was above 100 µM each time.

As for `CCN(CC)CCCC(C)N/C(c1cccc(OC)c1)=c1\c(=O)[nH]n(-c2c3ccccc3nc3ccccc23)c(=O)\c1=C(/NC(C)CCCN(CC)CC)c1cccc(OC)c1` (centres undefined), the GI50 in the test with CCRF-CEM leukemia was 0.482 µM; with SF-295 CNS, 1.74 µM; with A549 NSCLC it was 0.992 µM; in the test with RXF 393 renal, 1.02 µM; in the test with HCT-116 colon, 0.491 µM; in the test with MALME-3M melanoma, 1.9 µM. Further, the GI50 in the test with SR leukemia is 1.28 µM; in the test on NCI-H23 lung it was 2.02 µM. The TGI in the test on CCRF-CEM leukemia was determined as 3.93 µM; in the test on SF-295 CNS, 3.86 µM; in the test with A549 NSCLC, 4.25 µM; in the test with RXF 393 renal it was 2.55 µM; in the test with HCT-116 colon it was 3.25 µM; in the test with MALME-3M melanoma, 3.54 µM. In addition, the TGI in the test with SR leukemia worked out at 5.61 µM; in the test on NCI-H23 lung, 4.69 µM.

With `CCSc1nc(=S)[nH]c2[nH]ncc12`, the GI50 in the test on CCRF-CEM leukemia is 59 µM; in the test with SF-295 CNS, above 100 µM; with A549 NSCLC, above 100 µM; in the test on U251 CNS, above 100 µM; with RXF 393 renal it was 98.3 µM; with HCT-116 colon, above 100 µM. The figures for the GI50 in the test on MALME-3M melanoma, in the test on NCI-H23 lung and with LOX IMVI melanoma were above 100 µM, above 100 µM and 49.3 µM, respectively. The TGI in the test on CCRF-CEM leukemia, in the test with SF-295 CNS, in the test with A549 NSCLC, with U251 CNS, in the test with RXF 393 renal and in the test with HCT-116 colon was above 100 µM throughout. Moreover, the TGI in the test on MALME-3M melanoma, in the test with NCI-H23 lung and in the test on LOX IMVI melanoma was above 100 µM in each case.

On to `NC(=S)N/N=C1\C(=O)N(c2cccc([N+](=O)[O-])c2)C(=O)C1C(=O)Nc1cccc([N+](=O)[O-])c1` (centres undefined), for which the TGI in the test on CCRF-CEM leukemia, in the test with SF-295 CNS, with A549 NSCLC, in the test on U251 CNS, in the test with RXF 393 renal and in the test with HCT-116 colon was above 100 µM each time. The TGI in the test on MALME-3M melanoma, with NCI-H23 lung and in the test with LOX IMVI melanoma was above 100 µM throughout.
